Data taken from PMC9929129, “Towards Translation of PqsR Inverse Agonists: From In Vitro Efficacy Optimization to In Vivo Proof‐of‐Principle” (Advanced Science, 2023).

Key:
[1] = In vivo PK study, intratracheal (IT) and intravenous (IV); conditions: for Tmax / CL/F / Vd/F / half-life: male, CD1, mouse; for Cl/F_obs / Vz/F_obs: […] IV
Protocol: The enzymatic activity of the MLM
First, a calibration curve was prepared by […]
lavage fluid (BALF). Caffeine was used as
The in live part for the IV and IT PK studies were performed at CRO Saretius (UK). Groups of male CD1 […]
light/dark cycle with free access to food and water. Temperature and humidity were controlled according to U.K. HO regulations. On the day of the study, mice were briefly anesthetized with isoflurane before suspending the mouse by its upper incisors on a board held at an angle of approx.
45 degrees. Mice were then dosed intratracheally with the compound (24 or Tob) at the designated does formulated in ethanol/tyloxapol/glycerol/phosphate-buffered saline (PBS) [10:1:5:84] in a 1 mL/kg dosing volume up to a maximum of 30 µL per mouse. A laryngoscope was used to facilitate dosing. Animals were allowed to recover before replacing into their home cages. Terminal blood samples were then taken from groups of 3 mice at each of eight time points post-dose by cardiac puncture under CO2. Blood samples were placed in tubes on ice containing EDTA anticoagulant. After gentle mixing, samples were centrifuged (10,000 rpm x 3 min) and two 50 μL aliquots taken into fresh tubes that were immediately frozen on dry ice. Following blood sample collection, tracheas were exposed and a small incision made. An 18 Gauge plastic tube was then inserted through the incision into the trachea and tied in place. Aliquots of 0.8 mL of sterile saline were then infused into and then withdrawn from the lungs and the collected bronchoalveolar lavage (BALF) sample placed into a tube. This process was repeated two more times, and the samples from each mouse pooled. […]
frozen by immersion in liquid nitrogen.

[2] = system: P. aeruginosa strain ATCC 27853; assay: Neutropenic thigh infection model in mice
Protocol: Figure S6. AUC levels after IV and IT administration
1.4.8 In vivo thigh infection model with P. aeruginosa
Male, 6 weeks-old, CD -1 mice (Charles River, Netherlands) were rendered neutropenic by administration of 150 mg/kg and 100 mg/kg cyclophosphamide i.p. on day –4, –1 and +1, respectively. The P. aeruginosa strain ATCC 27853 was used. The inoculum was prepared as follows: on day –1 the P. aeruginosa strain was streaked out onto a blood agar plate and incubated at 37 °C.
Then one sing le colony was inoculated into MHB medium (diluted 1:2 in water) and incubated at 120 rpm and 37 °C. […]
PBS. Then they were adjusted to an OD of 1 and diluted 1:5000 in PBS. The inoculum was plated onto MHB agar plates in serial dilutions and incubated at 37 °C. Mice were grouped into the following (n=18 for each group): (1) baseline inoculum group, sacrificed 2 h post infection; (2) vehicle control group (receiving vehicle t= 2, 12, 24 and 36 h post infection as well as 20 mg/kg tramadol SC t= 0 and 24 h post infection); (3) tobramycin group I (8 mg/kg tobramycin IV at t= 2 and 24 h post infection); (4) tobramycin group II (1 mg/kg tobramycin IV at t= 2 and 24 h post infection); (5) 24 group (30 mg/kg 24 SC at t=2, 12, 24 and 36 h post infection); (6) 24 + tobramycin group (30 mg/kg 24 SC at t=2, 12, 24 and 36 h and tobramycin 1 mg/kg IV at t= 2 and 24 h post infection). On the day of infection (day 0), mice received 30 µL of the P. aeruginosa strain ATCC 27853 into each lateral thigh (inoculum:
1x10^5 cfu/mL). 48 h after infection, mice were euthanized, blood was removed from the heart, lung and thighs were aseptically removed. […]
homogenized in 0.9% NaCl-solution and plated onto MHB agar plates in duplicate in serial dilutions and incubated at 37 °C for 24 h. Blood, lung and thighs were also subjected to LC-MS/MS analysis.
Figure S8. Plasma and lung-tissue levels after the in vivo infection model.

[3] = epithelial lining fluid, iv, ELF Tmax

SMILES: CC(C)Oc1ccc(-c2ncc(CNc3ccnc(C(F)(F)F)c3)cn2)cc1Cl [Compound 24]
- Tmax [1, 3]: 40.2 ± 54 min
- CL/F ([1]; in vivo, inhaled or intranasal): 0.048 ± 0.006 L/h/kg
- Vd/F ([1]; in vivo, inhaled or intranasal): 0.06 L/kg
- half-life ([1]; in vivo, inhaled or intranasal): 48.6 min
- Tmax ([1]; in vivo, inhaled or intranasal, ELF Tmax): 30 min
- Tmax ([1]; in vivo, inhaled or intranasal, Lung Tmax): 40.2 ± 18 min
- Tmax ([1]; in vivo, inhaled or intranasal, Tmax): 40.2 ± 18 min
- Tmax ([1]; lung tissue, iv, Lung Tmax): 4.8 min
- half-life ([1]; plasma, iv): 63 ± 6 min
- Cl/F_obs ([1]; plasma): 0.0126 ± 0 L/h/kg
- Vz/F_obs ([1]; plasma): 0.02 ± 0.0 L/kg
- bacterial burden in the muscle compared to all other groups ([2]; 24 30 mg kg^−1 SC combined with low dose tobramycin 1 mg kg^−1 IV, 48 h, p < 0.001): significantly reduced bacterial burden
- bacterial burden, secondary site of infection (lung), dissemination ([2]; 24 30 mg/kg SC combined with low tobramycin dose 1 mg/kg IV, 48 h): detectable inhibition of dissemination
- CFU reduction over vehicle, primary infection site (thigh muscle) ([2]; 24 alone, 30 mg/kg SC at 2, 12, 24 and 36 h p.i., 48 h): did not exert significant effects
- bacterial burden, secondary site of infection (lung), dissemination ([2]; 24 alone, 30 mg/kg SC, 48 h): did not show a significant effect

SMILES: NC[C@H]1O[C@H](O[C@H]2[C@H](O)[C@@H](O[C@H]3O[C@H](CO)[C@@H](O)[C@H](N)[C@H]3O)[C@H](N)C[C@@H]2N)[C@H](N)C[C@@H]1O [Tobramycin, tobramycin]
- Tmax ([1]; epithelial lining fluid, inhaled or intranasal, ELF Tmax, […] IT): 40.2 ± 18 min
- Tmax [1, 3]: 8.4 ± 6 min
- Tmax ([1]; lung, inhaled or intranasal, Lung Tmax, lung tissue, […] IT): 49.8 ± 18 min
- CL/F ([1]; plasma, inhaled or intranasal): 0.912 ± 0.48 L/h/kg
- Vd/F ([1]; plasma, inhaled or intranasal): 1.02 ± 0.4 L/kg
- half-life ([1]; plasma, inhaled or intranasal): 48.6 ± 12 min
- Tmax ([1]; plasma, inhaled or intranasal, Tmax, […] IT): 40.2 ± 18 min
- half-life ([1]; plasma, iv): 15 ± 6 min
- Cl/F_obs ([1]; plasma): 1.679 ± 0.108 L/h/kg
- Vz/F_obs ([1]; plasma): 0.60 ± 0.2 L/kg
- terminal level in plasma and lung tissue (LC–MS/MS) ([2]; 48 h after infection): did not detect any
- CFU reduction over vehicle, primary infection site (thigh muscle) ([2]; tobramycin high, 8 mg/kg IV at 2 and 24 h p.i., 48 h): did not exert significant effects
- bacterial burden, secondary site of infection (lung), dissemination ([2]; tobramycin high, 8 mg/kg IV, 48 h): did not reach significance
- CFU reduction over vehicle, primary infection site (thigh muscle) ([2]; tobramycin low, 1 mg/kg IV at 2 and 24 h p.i., 48 h): did not exert significant effects
- bacterial burden, secondary site of infection (lung), dissemination ([2]; tobramycin low, 1 mg/kg IV, 48 h): did not show a significant effect
